SMILES strings stand for the structures. Activity calls are given as the source filed them. The calls are words filed in the database; no cut-off is given here.

For this assay, the system named is Candida albicans. Briefly: Antimicrobial activity against Candida albicans ATCC 32354. Format: functional, organism-based.

For the molecule `CC1=C(O)C(C)(CCCCCC(C)CCCCc2ccc(O)cc2)OOC1=O` (stereo unspecified), the outcome was inactive.

(Values after ChEMBL document CHEMBL1158995, “A novel perlactone from the Caribbean sponge Plakortis angulospiculatus” (J Nat Prod, 1991).)
